Reference: ChEMBL document CHEMBL3112450, “Synthesis and in vitro antitumor evaluation of primary amine substituted quinazoline linked benzimidazole” (Bioorg Med Chem Lett, 2014)

Assays:
Type in all cases: functional
[1] = test system: IGROV-1; assay: Cytotoxicity against human IGROV1 cells assessed as cell growth at 10^-7 M after 48 hrs by SRB assay; settings: IGROV-1, 48 h, read-out: Activity
[2] = test system: M14; assay: Cytotoxicity against human M14 cells assessed as cell growth at 10^-7 M after 48 hrs by SRB assay; settings: M14, 48 h, read-out: Activity
[3] = test system: SF-539; assay: Cytotoxicity against human SF539 cells assessed as cell growth at 10^-7 M after 48 hrs by SRB assay; settings: SF-539, 48 h, read-out: Activity
[4] = test system: HT-29; assay: Cytotoxicity against human HT-29 cells assessed as cell growth at 10^-7 M after 48 hrs by SRB assay; settings: HT-29, 48 h, read-out: Activity
[5] = test system: NCI-H322M; assay: Cytotoxicity against human NCI-H322M cells assessed as cell growth at 10^-7 M after 48 hrs by SRB assay; settings: read-out: Activity
[6] = test system: HL-60(TB); assay: Cytotoxicity against human HL-60(TB) cells assessed as cell growth at 10^-7 M after 48 hrs by SRB assay; settings: HL-60, 48 h, read-out: Activity
[7] = test system: ACHN; assay: Cytotoxicity against human ACHN cells assessed as cell growth at 10^-4 M after 48 hrs by SRB assay; settings: read-out: Activity
[8] = test system: SK-MEL-5; assay: Cytotoxicity against human SK-MEL-5 cells assessed as cell growth at 10^-4 M after 48 hrs by SRB assay; settings: SK-MEL-5, 48 h, read-out: Activity
[9] = test system: SK-MEL-28; assay: Cytotoxicity against human SK-MEL-28 cells assessed as cell growth at 10^-8 M after 48 hrs by SRB assay; settings: SK-MEL-28, 48 h, read-out: Activity
[10] = test system: HL-60(TB); assay: Cytotoxicity against human HL-60(TB) cells assessed as cell growth at 10^-8 M after 48 hrs by SRB assay; settings: HL-60, 48 h, read-out: Activity
[11] = test system: MDA-MB-468; assay: Cytotoxicity against human MDA-MB-468 cells assessed as cell growth at 10^-5 M after 48 hrs by SRB assay; settings: MDA-MB-468, 48 h, read-out: Activity
[12] = test system: T47D; assay: Cytotoxicity against human T47D cells assessed as cell growth at 10^-5 M after 48 hrs by SRB assay; settings: read-out: Activity
[13] = test system: MDA-MB-231; assay: Cytotoxicity against human MDA-MB-231 cells assessed as cell growth at 10^-5 M after 48 hrs by SRB assay; settings: MDA-MB-231, 48 h, read-out: Activity
[14] = test system: DU-145; assay: Cytotoxicity against human DU145 cells assessed as cell growth at 10^-5 M after 48 hrs by SRB assay; settings: DU-145, 48 h, read-out: Activity
[15] = Cytotoxicity against human UO31 cells assessed as cell growth at 10^-5 M after 48 hrs by SRB assay; settings: UO-31, 48 h, read-out: Activity
[16] = test system: PC-3; assay: Cytotoxicity against human PC3 cells assessed as cell growth at 10^-5 M after 48 hrs by SRB assay; settings: PC-3, 48 h, read-out: Activity
[17] = test system: TK-10; assay: Cytotoxicity against human TK10 cells assessed as cell growth at 10^-5 M after 48 hrs by SRB assay; settings: TK-10, 48 h, read-out: Activity
[18] = test system: ACHN; assay: Cytotoxicity against human ACHN cells assessed as cell growth at 10^-5 M after 48 hrs by SRB assay; settings: read-out: Activity
[19] = test system: CAKI-1; assay: Cytotoxicity against human Caki1 cells assessed as cell growth at 10^-5 M after 48 hrs by SRB assay; settings: CAKI-1, 48 h, read-out: Activity
[20] = test system: UACC-62; assay: Cytotoxicity against human UACC62 cells assessed as cell growth at 10^-5 M after 48 hrs by SRB assay; settings: UACC-62, 48 h, read-out: Activity
[21] = test system: SF-268; assay: Cytotoxicity against human SF268 cells after 48 hrs by SRB assay; settings: SF-268, 48 h
[22] = test system: HCT-15; assay: Cytotoxicity against human HCT15 cells after 48 hrs by SRB assay; settings: HCT-15, 48 h
[23] = test system: HCT-116; assay: Cytotoxicity against human HCT116 cells after 48 hrs by SRB assay; settings: HCT-116, 48 h
[24] = test system: U-251; assay: Cytotoxicity against human U251 cells assessed as cell growth at 10^-5 M after 48 hrs by SRB assay; settings: U-251, 48 h, read-out: Activity
[25] = test system: SNB-19; assay: Cytotoxicity against human SNB19 cells assessed as cell growth at 10^-5 M after 48 hrs by SRB assay; settings: SNB-19, 48 h, read-out: Activity
[26] = test system: SF-295; assay: Cytotoxicity against human SF295 cells assessed as cell growth at 10^-5 M after 48 hrs by SRB assay; settings: SF-295, 48 h, read-out: Activity
[27] = test system: SF-539; assay: Cytotoxicity against human SF539 cells assessed as cell growth at 10^-5 M after 48 hrs by SRB assay; settings: SF-539, 48 h, read-out: Activity
[28] = test system: HCT-116; assay: Cytotoxicity against human HCT116 cells assessed as cell growth at 10^-5 M after 48 hrs by SRB assay; settings: HCT-116, 48 h, read-out: Activity
[29] = test system: COLO 205; assay: Cytotoxicity against human COLO205 cells assessed as cell growth at 10^-5 M after 48 hrs by SRB assay; settings: COLO 205, 48 h, read-out: Activity
[30] = test system: NCI-H460; assay: Cytotoxicity against human NCI-H460 cells assessed as cell growth at 10^-5 M after 48 hrs by SRB assay; settings: NCI-H460, 48 h, read-out: Activity
[31] = test system: NCI-H226; assay: Cytotoxicity against human NCI-H226 cells assessed as cell growth at 10^-5 M after 48 hrs by SRB assay; settings: NCI-H226, 48 h, read-out: Activity
[32] = test system: HOP-92; assay: Cytotoxicity against human HOP92 cells assessed as cell growth at 10^-5 M after 48 hrs by SRB assay; settings: HOP-92, 48 h, read-out: Activity
[33] = test system: SR; assay: Cytotoxicity against human SR cells assessed as cell growth at 10^-5 M after 48 hrs by SRB assay; settings: read-out: Activity
[34] = test system: RPMI-8226; assay: Cytotoxicity against human RPMI8226 cells assessed as cell growth at 10^-5 M after 48 hrs by SRB assay; settings: RPMI-8226, 48 h, read-out: Activity
[35] = test system: CCRF-CEM; assay: Cytotoxicity against human CCRF-CEM cells assessed as cell growth at 10^-5 M after 48 hrs by SRB assay; settings: read-out: Activity
[36] = test system: SNB-19; assay: Cytotoxicity against human SNB19 cells assessed as cell growth at 10^-6 M after 48 hrs by SRB assay; settings: SNB-19, 48 h, read-out: Activity
[37] = test system: HCT-116; assay: Cytotoxicity against human HCT116 cells assessed as cell growth at 10^-6 M after 48 hrs by SRB assay; settings: HCT-116, 48 h, read-out: Activity
[38] = test system: NCI-H226; assay: Cytotoxicity against human NCI-H226 cells assessed as cell growth at 10^-6 M after 48 hrs by SRB assay; settings: NCI-H226, 48 h, read-out: Activity
[39] = test system: MDA-MB-231; assay: Cytotoxicity against human MDA-MB-231 cells assessed as cell growth at 10^-7 M after 48 hrs by SRB assay; settings: MDA-MB-231, 48 h, read-out: Activity

Work on `C=CCn1c(C)nc2ccc(Nc3nc(Nc4ccc(F)cc4)nc4ccccc34)cc21` yielded a growth at 0.1 µM [1] of 94%, a growth at 0.1 µM [2] of 97% and a growth at 0.1 µM [3] of 98%. The growth at 0.1 µM [4] was 101%, the growth at 0.1 µM [5] was 96% and the growth at 0.1 µM [6] was 100%. The growth at 100 µM [7] was -73%, the growth at 100 µM [8] was -69% and the growth at 0.01 µM [9] was 95%. The growth at 0.01 µM [10] was 94%, the growth at 10 µM [11] was -90% and the growth at 10 µM [12] was -47%. It also gave a growth at 10 µM [13] of -8%, a growth at 10 µM [14] of 47% and a growth at 10 µM [15] of 33%. The growth at 10 µM [16] was 16%, the growth at 10 µM [17] was 40% and the growth at 10 µM [18] was -54%. The growth at 10 µM [19] was 42%, the growth at 10 µM [20] was -69% and the GI50 [21] was 8.69 µM. The LC50 (50% lethal concentration) [21] was 82.3 µM, the TGI [21] was 27.8 µM and the GI50 [22] was 2.84 µM. It also gave an LC50 [22] greater than 100 µM, a TGI [22] of 10.4 µM and a GI50 [23] of 2.41 µM. For the same compound, the LC50 (concentration killing 50% of cells) [23] was 39.1 µM, the TGI [23] was 7.67 µM and the growth at 10 µM [24] was 17%. The growth at 10 µM [25] was 48%, the growth at 10 µM [26] was 31.4% and the growth at 10 µM [27] was 64%. For the same compound, the growth at 10 µM [28] was -11%, the growth at 10 µM [29] was -91% and the growth at 10 µM [30] was 11%. For the same compound, the growth at 10 µM [31] was -62%, the growth at 10 µM [32] was -8% and the growth at 10 µM [33] was -27%. For the same compound, the growth at 10 µM [34] was -43%, the growth at 10 µM [35] was 2% and the growth at 1 µM [36] was 86%. For the same compound, the growth at 1 µM [37] was 88%, the growth at 1 µM [38] was 87% and the growth at 0.1 µM [39] was 98%.
`C=CCn1c(C)nc2cc(Nc3nc(NCCO)nc4ccccc34)ccc21` showed a growth at 10 µM [11] of 53.5%, a growth at 10 µM [12] of 69% and a growth at 10 µM [13] of 72.9%. For the same compound, the growth at 10 µM [14] was 98.8%, the growth at 10 µM [15] was 72.4% and the growth at 10 µM [16] was 69.2%. For the same compound, the growth at 10 µM [17] was 118%, the growth at 10 µM [18] was 90.5% and the growth at 10 µM [19] was 93%. The growth at 10 µM [20] was 85.5%, the growth at 10 µM [24] was 90.9% and the growth at 10 µM [25] was 90.2%. The growth at 10 µM [26] was 90.6%, the growth at 10 µM [27] was 94.8% and the growth at 10 µM [28] was 64%. It also gave a growth at 10 µM [29] of 41.9%, a growth at 10 µM [30] of 96% and a growth at 10 µM [31] of 78.8%. The growth at 10 µM [32] was 57.9%, the growth at 10 µM [33] was 68.8% and the growth at 10 µM [34] was 63.4%. It also gave a growth at 10 µM [35] of 81.9%.
